From ChEMBL document CHEMBL4706768, “Discovery of Potent, Selective Triazolothiadiazole-Containing c-Met Inhibitors” (ACS Med Chem Lett, 2021)

How the values were obtained:
[1] = target: Insulin receptor-related protein (Homo sapiens) (UniProt P14616); test: Inhibition of recombinant human N-terminal His6-tagged IRR (944 to 1266 residues) expressed in baculovirus infected Sf21 insect cells at 2 uM using MBP (13-104) as substrate relative to control
[2] = target: Dual specificity mitogen-activated protein kinase kinase 1 (Homo sapiens) (UniProt Q02750); test: Inhibition of recombinant human N-terminal GST-tagged/C-terminal His6-tagged full-length MEK1 expressed in Escherichia coli at 2 uM using MBP as substrate relative to control
[3] = target: ALK tyrosine kinase receptor (Homo sapiens) (UniProt Q9UM73); test: Inhibition of recombinant N-terminal His6-tagged human ALK (1058 to end residues) expressed in baculovirus infected Sf21 insect cells at 2 uM using IGF-1Rtide as substrate relative to control
[4] = target: Vascular endothelial growth factor receptor 1 (Homo sapiens) (UniProt P17948); test: Inhibition of recombinant human N-terminal GST-tagged FLT1 (783 to end residues) expressed in baculovirus infected Sf21 insect cells at 2 uM using KKKSPGEYVNIEFG as substrate relative to control
Vascular endothelial growth factor receptor 1 (Homo sapiens), sequence (P17948 whole entry): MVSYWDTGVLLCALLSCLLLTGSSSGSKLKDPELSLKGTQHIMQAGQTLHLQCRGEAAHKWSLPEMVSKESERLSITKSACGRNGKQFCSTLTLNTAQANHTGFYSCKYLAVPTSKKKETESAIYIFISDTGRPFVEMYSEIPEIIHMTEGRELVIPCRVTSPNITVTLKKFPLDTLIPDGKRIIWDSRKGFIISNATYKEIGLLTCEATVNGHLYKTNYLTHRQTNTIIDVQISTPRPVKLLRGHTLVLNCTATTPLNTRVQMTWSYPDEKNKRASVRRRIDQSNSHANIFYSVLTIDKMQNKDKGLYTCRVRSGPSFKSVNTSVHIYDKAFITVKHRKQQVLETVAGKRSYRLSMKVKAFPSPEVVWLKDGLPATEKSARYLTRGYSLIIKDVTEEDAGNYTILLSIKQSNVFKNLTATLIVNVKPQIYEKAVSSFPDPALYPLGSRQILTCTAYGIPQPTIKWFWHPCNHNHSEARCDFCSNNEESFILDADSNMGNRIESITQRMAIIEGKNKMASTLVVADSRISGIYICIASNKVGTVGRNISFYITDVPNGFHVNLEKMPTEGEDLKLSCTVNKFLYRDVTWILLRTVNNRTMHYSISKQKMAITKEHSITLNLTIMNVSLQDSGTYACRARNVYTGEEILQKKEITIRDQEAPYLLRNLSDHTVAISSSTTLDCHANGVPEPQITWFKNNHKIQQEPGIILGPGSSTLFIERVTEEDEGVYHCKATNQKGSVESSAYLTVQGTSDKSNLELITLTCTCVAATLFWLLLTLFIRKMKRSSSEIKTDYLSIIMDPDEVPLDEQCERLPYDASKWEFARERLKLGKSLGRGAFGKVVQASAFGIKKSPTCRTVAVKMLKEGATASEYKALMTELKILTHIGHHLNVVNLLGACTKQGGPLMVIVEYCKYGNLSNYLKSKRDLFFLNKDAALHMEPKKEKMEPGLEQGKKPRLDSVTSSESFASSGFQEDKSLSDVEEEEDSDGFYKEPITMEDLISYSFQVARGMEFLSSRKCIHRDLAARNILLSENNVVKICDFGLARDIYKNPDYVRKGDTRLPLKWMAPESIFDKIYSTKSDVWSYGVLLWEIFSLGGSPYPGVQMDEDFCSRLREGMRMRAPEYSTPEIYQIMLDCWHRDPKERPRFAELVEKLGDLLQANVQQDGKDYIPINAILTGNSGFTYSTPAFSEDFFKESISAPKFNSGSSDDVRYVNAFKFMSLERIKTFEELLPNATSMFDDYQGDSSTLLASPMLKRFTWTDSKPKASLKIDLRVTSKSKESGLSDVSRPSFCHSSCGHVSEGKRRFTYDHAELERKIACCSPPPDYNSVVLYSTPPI

[5] = target: Serine/threonine-protein kinase Nek2 (Homo sapiens) (UniProt P51955); test: Inhibition of recombinant human N-terminal His6-tagged NEK2 expressed in baculovirus infected Sf21 insect cells at 2 uM using MBP as substrate relative to control
[6] = target: Serine/threonine-protein kinase 3 (Homo sapiens) (UniProt Q13188); test: Inhibition of recombinant human N-terminal His6-tagged MST2 (2 to end residues) expressed in baculovirus infected Sf21 insect cells at 2 uM using MBP as substrate relative to control
[7] = target: Proto-oncogene tyrosine-protein kinase Src (Homo sapiens, UniProt P12931); test: Inhibition of SRC (unknown origin)
[8] = target: Calcium/calmodulin-dependent protein kinase type II subunit beta (Homo sapiens) (UniProt Q13554); test: Inhibition of recombinant human N-terminal His6-tagged CAMK2beta (1 to 315 residues) expressed in baculovirus infected Sf21 insect cells at 2 uM using ZIPtide as substrate relative to control
[9] = target: cGMP-inhibited 3',5'-cyclic phosphodiesterase 3A (Homo sapiens, UniProt Q14432); test: Inhibition of recombinant human N-terminal GST/His-tagged PDE3A (669 to 1141 residues) expressed in baculovirus infected Sf9 insect cells using iFL-cAMP as substrate preincubated for 15 mins followed by substrate addition and measured after 40 mins by fluorescence assay
cGMP-inhibited 3',5'-cyclic phosphodiesterase 3A, sequence (Q14432 whole entry, the tested form may be a part): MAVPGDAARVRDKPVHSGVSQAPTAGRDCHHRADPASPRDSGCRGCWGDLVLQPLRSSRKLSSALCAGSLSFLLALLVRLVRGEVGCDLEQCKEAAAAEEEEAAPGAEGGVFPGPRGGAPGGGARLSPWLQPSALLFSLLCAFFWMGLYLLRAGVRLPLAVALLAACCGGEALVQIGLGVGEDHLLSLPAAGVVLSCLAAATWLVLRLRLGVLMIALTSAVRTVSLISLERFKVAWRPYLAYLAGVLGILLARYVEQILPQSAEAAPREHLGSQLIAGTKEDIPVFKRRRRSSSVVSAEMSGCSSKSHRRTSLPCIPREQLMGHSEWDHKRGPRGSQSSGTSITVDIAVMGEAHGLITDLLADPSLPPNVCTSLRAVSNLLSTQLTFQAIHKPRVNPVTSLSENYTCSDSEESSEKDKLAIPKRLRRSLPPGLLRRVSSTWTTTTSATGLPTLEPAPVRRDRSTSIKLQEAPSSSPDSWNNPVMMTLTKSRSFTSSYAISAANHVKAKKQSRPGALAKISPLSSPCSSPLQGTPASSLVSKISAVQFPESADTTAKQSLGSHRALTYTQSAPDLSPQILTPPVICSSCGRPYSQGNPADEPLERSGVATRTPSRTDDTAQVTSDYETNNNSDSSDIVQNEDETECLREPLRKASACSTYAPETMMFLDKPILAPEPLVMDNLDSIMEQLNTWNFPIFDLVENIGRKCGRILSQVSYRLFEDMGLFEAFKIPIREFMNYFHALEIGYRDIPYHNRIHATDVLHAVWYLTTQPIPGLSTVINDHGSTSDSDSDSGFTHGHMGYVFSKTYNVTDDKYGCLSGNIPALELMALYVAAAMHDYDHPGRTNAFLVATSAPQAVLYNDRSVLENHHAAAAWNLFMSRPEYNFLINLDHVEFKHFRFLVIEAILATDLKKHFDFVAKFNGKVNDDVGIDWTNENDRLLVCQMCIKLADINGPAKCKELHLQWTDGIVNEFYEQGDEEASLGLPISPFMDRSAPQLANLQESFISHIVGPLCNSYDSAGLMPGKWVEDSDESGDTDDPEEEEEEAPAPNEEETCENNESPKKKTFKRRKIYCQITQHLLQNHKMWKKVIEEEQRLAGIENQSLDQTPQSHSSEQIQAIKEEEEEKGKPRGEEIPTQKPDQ

[10] = target: Tyrosine-protein kinase ZAP-70 (Homo sapiens) (UniProt P43403); test: Inhibition of recombinant human full-length C-terminal His6-tagged ZAP70 expressed in Sf21 insect cells at 2 uM using poly (Glu4-Tyr) (4:1) as substrate relative to control
Tyrosine-protein kinase ZAP-70 (Homo sapiens), sequence (P43403 whole entry): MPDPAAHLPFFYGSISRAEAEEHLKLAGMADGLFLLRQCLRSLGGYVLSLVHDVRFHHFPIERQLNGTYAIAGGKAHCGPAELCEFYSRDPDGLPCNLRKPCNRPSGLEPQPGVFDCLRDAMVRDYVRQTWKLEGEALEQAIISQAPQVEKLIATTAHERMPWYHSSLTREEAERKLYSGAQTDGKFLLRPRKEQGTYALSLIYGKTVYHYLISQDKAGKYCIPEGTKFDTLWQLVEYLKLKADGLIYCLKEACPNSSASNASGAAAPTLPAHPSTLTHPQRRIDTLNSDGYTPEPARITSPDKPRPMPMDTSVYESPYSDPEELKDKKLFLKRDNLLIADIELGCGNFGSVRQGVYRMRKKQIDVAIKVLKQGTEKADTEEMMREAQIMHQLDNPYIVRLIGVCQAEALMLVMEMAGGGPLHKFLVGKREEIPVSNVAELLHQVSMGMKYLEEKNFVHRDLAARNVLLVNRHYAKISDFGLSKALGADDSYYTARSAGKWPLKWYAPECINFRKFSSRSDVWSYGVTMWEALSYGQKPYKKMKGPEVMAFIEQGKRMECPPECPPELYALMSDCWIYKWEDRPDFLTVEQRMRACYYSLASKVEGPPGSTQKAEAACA

[11] = target: Serine/threonine-protein kinase N2 (Homo sapiens) (UniProt Q16513); test: Inhibition of PRK2 (unknown origin) at 2 uM relative to control
Homo sapiens [12] = organism: Homo sapiens; test: Selectivity ratio of IC50 for inhibition of recombinant human N-terminal GST/His-tagged PDE3A (669 to 1141 residues) expressed in baculovirus infected Sf9 insect cells to IC50 for inhibition of c-MET in human SNU-5 cells
[13] = target: Tyrosine-protein kinase Lyn (Homo sapiens) (UniProt P07948); test: Inhibition of recombinant human N-terminal His6-tagged full-length LYN expressed in Sf21 insect cells at 2 uM using Poly (Glu4-Tyr) (4:1) as substrate relative to control
Tyrosine-protein kinase Lyn (Homo sapiens), sequence (P07948 2-512 limits assumed): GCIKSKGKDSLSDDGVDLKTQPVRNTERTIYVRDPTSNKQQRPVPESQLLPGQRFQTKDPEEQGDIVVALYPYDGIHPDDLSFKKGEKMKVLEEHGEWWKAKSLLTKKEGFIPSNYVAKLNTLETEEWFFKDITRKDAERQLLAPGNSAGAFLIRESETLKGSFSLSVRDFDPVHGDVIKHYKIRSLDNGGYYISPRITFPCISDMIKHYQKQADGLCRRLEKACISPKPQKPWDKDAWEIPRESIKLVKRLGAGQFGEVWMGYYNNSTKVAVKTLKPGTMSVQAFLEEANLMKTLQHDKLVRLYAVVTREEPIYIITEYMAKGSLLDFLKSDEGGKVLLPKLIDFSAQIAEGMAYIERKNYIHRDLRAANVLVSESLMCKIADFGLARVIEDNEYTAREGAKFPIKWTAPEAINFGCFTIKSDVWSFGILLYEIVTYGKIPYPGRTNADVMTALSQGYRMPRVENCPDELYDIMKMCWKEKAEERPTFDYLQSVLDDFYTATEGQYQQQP

[14] = target: Ribosomal protein S6 kinase alpha-2 (Homo sapiens) (UniProt Q15349); test: Inhibition of recombinant human N-terminal full-length His6-tagged RSK3 ([…]) expressed in Sf21 insect cells at 2 uM using MAPKAP Kinase 2 as substrate relative to control
[15] = target: Tyrosine-protein kinase Fyn (Homo sapiens) (UniProt P06241); test: Inhibition of recombinant human N-terminal His6-tagged full-length FYN expressed in baculovirus infected Sf21 insect cells at 2 uM using Src peptide as substrate relative to control
[16] = target: Receptor-interacting serine/threonine-protein kinase 2 (Homo sapiens) (UniProt O43353); test: Inhibition of recombinant human N-terminal His6-tagged RIPK2 (1 to 299 residues) expressed in baculovirus infected Sf21 insect cells at 2 uM using MBP as substrate relative to control
Homo sapiens [17] = organism: Homo sapiens; test: Inhibition of CK1 (unknown origin) at 2 uM relative to control
[18] = target: Mitogen-activated protein kinase 8 (Homo sapiens) (UniProt P45983); test: Inhibition of recombinant human full-length N-terminal His-tagged JNK1alpha1 ([…]) expressed in Sf21 insect cells at 2 uM using ATF2 (19 to 96 residues) as substrate relative to control
[19] = target: Rho-associated protein kinase 2 (Homo sapiens) (UniProt O75116); test: Inhibition of recombinant human N-terminal GST-tagged ROCK2 (5 to 554 residues) expressed in baculovirus infected Spodoptera frugiperda insect cells at 2 uM using KRRRLASLR as substrate relative to control
[20] = target: Tyrosine-protein kinase Fes/Fps (Homo sapiens) (UniProt P07332); test: Inhibition of recombinant human N-terminal His6-tagged FES (561 to end residues) expressed in baculovirus infected Sf21 insect cells at 2 uM using poly (Glu,Tyr) (4:1) as substrate relative to control
Tyrosine-protein kinase Fes/Fps (Homo sapiens), sequence (P07332 whole entry): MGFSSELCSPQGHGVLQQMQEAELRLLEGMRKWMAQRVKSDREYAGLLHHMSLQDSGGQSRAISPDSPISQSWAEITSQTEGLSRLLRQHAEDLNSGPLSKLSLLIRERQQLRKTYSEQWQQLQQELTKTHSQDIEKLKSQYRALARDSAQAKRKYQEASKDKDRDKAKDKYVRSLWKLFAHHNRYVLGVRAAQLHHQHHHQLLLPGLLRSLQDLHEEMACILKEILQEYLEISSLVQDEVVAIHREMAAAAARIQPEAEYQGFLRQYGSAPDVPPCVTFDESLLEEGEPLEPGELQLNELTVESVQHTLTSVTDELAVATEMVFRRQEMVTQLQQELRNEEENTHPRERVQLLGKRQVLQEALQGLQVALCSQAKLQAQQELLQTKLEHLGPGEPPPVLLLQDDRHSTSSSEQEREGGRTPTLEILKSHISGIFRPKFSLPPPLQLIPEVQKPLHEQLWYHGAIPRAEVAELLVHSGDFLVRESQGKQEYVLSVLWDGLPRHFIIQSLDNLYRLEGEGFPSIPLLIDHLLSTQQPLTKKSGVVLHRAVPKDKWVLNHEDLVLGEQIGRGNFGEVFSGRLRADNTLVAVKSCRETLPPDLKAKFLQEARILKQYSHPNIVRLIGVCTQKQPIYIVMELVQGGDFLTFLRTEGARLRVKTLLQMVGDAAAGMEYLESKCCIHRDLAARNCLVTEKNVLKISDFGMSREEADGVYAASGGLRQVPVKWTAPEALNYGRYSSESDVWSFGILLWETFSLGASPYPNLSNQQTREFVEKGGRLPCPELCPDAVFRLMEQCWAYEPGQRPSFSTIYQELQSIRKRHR

[21] = target: Inhibitor of nuclear factor kappa-B kinase subunit alpha (Homo sapiens) (UniProt O15111); test: Inhibition of IKKa (unknown origin) at 2 uM relative to control
[22] = target: Mitogen-activated protein kinase; ERK1/ERK2 (Homo sapiens) (UniProt P27361+P28482); test: Inhibition of recombinant human full-length N-terminal GST-tagged MAPK1/ERK1 ([…]) expressed in Escherichia coli at 2 uM using MBP as substrate relative to control
[23] = target: Serine/threonine-protein kinase Sgk1 (Homo sapiens) (UniProt O00141); test: Inhibition of SGK (unknown origin) at 2 uM relative to control
[24] = target: Tyrosine-protein kinase JAK2 (Homo sapiens, UniProt O60674); test: Inhibition of JAK2 (unknown origin)
[25] = target: Mitogen-activated protein kinase 11 (Homo sapiens) (UniProt Q15759); test: Inhibition of recombinant human N-terminal GST-tagged full-length p38beta2 expressed in Escherichia coli at 2 uM using MBP as substrate relative to control
Mitogen-activated protein kinase 11 (Homo sapiens), sequence (Q15759 whole entry): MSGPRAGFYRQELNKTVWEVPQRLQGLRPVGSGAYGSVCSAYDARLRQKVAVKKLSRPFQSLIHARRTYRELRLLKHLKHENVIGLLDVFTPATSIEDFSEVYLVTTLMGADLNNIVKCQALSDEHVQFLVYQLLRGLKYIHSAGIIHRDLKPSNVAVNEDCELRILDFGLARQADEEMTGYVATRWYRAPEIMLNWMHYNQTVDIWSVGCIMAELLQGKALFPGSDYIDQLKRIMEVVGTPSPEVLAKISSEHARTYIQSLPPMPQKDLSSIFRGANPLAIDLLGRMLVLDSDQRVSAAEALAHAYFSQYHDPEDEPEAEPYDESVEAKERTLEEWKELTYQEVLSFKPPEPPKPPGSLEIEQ

[26] = target: Tyrosine-protein kinase Blk (Homo sapiens) (UniProt P51451); test: Inhibition of recombinant N-terminal His6-tagged human full-length BLK expressed in Sf21 insect cells at 2 uM using Poly (Glu4-Tyr) (4:1) as substrate relative to control
[27] = target: MAP kinase-activated protein kinase 5 (Homo sapiens) (UniProt Q8IW41); test: Inhibition of recombinant human N-terminal His6-tagged full-length PRAK expressed in baculovirus infected Sf21 insect cells at 2 uM using PRAK substrate peptide relative to control

C[C@@H](c1ccc2ncccc2c1)c1nnc2sc(-c3cnn(C)c3)nn12
inhibition [1]: < 50%
inhibition [2]: < 50%
inhibition [3]: < 50%
inhibition [4]: < 50%
inhibition [5]: < 50%
inhibition [6]: < 50%
Ki [7]: > 4 µM
inhibition [8]: < 50%
IC50 [9]: 500 nM
inhibition [10]: < 50%
inhibition [11]: < 50%
Ratio IC50 (Homo sapiens [12]): 25
inhibition [13]: < 50%
inhibition [14]: < 50%
inhibition [15]: < 50%
inhibition [16]: < 50%
inhibition (Homo sapiens [17]): < 50%
inhibition [18]: < 50%
inhibition [19]: < 50%
inhibition [20]: < 50%
inhibition [21]: < 50%
inhibition [22]: < 50%
inhibition [23]: < 50%
Ki [24]: > 4 µM
inhibition [25]: < 50%
inhibition [26]: < 50%
inhibition [27]: < 50%
